Measured values published in patent US8372819B2, “Methods and compositions for targeting skip” (Salk Institute for Biological Studies, priority 2010, dated 2013).
Where a SMILES comes first, the peptide text is derived from it. The star is where a group is joined. Cbz = O=C(OCc1ccccc1)*

Tests used:
p21 mRNA = assay: TGF-β induction of p21 mRNA in MDA-MB-231 cells (qRT-PCR); assay type: cell-based, human; settings: TGF-β 5 ng/mL
Protocol: FIG. 5. SKIP is required for Nutlin and TGF-β-induced p21 gene expression. (A, left) qRT-PCR analysis of p21 and PUMA mRNA levels. U2OS cells were transfected with control or SKIP siRNA for 48 h, and incubated in the presence or absence of Nutlin (10 μM) for 18 h. (Right, lanes 1-4) Protein lysates were subjected to immunoblot analysis. (B) qRT-PCR analysis of p21 mRNA levels. MDA-MB-231 cells were transfected with control or SKIP siRNA for 48 h, followed by incubation in the presence or absence of TGF-β (5 ng/mL) for the indicated times. (C, lanes 1-6) Immunoblot analysis of SKIP, Smad2/3, p53, p21, or GAPDH in cells transfected with control or SKIP siRNA for 48 h, followed by treatment with TGF-β (5 ng/mL) for the indicated times. (D, left) qRT-PCR analysis of p21 mRNA levels in HCT 116 p53^−/− cells, H1299 cells, HeLa cells and MDA-MB-231 cells transfected with control or SKIP siRNA for 48 h. (Right, lanes 1-8) Protein lysates were subjected to immunoblot analysis. All of the mRNA expression levels were normalized to GAPDH mRNA, and are represented as fold increase or decrease over untreated cells. Error bars represent the standard deviation obtained from three independent experiments. […]

p21 = assay: Immunoblot of p21 protein in U2OS cells; assay type: cell-based, human; settings: U2OS cells transfected with control or SKIP siRNA, proteasome inhibitor treatment
From the text: As observed for many essential proteins, depletion of SKIP by siRNA increases endogenous p53 levels. […] To assess whether SKIP plays a role in the normal p53 stress response, endogenous p53 was induced in two human cancer cell lines, U2OS (osteosarcoma) and HCT116 (colon cancer), using the chemotherapeutic DNA damage agents etoposide (U2OS cells) or doxorubicin (HCT116 cells). […] Consequently, PUMA expression was elevated in SKIP-depleted cells, and increased further with DNA damage (FIG. 1). In contrast, both basal and stress-induced p21 mRNA levels decreased in SKIP-depleted HCT116 or U2OS cells, compared with cells treated with a control siRNA, accompanied by a strong block to p21 protein expression, as detected by immunoblot (FIG. 1A, 1B, lanes 1-3 and 4-6). Similar results were obtained using two different SKIP siRNAs.
To determine whether SKIP might also affect p21 protein stability, the rate of p21 protein turnover was measured in SKIP knockdown cells in the absence of stress. Forty-eight hours after transfection with control or SKIP siRNA, U2OS cells were treated with cycloheximide (CHX) to prevent new protein synthesis, and the decay of endogenous p21 protein was measured.

SKIP mRNA = SKIP mRNA levels in 293 cells exposed to FP; assay type: cell-based; settings: 10 nM FP
Protocol: (§1) SKIP expression is blocked by Flavopiridol (FP), a CDK inhibitor currently in clinical trials. […] SKIP protein levels decline starting at lOnM FP, though mRNA levels are unaffected at 10 nM FP.

[1] = system: Ser2-phosphorylated RNAPII; assay: Immunoblot of Ser2-phosphorylated RNAPII in response to FP; assay type: cell-based
Protocol: FIG. 8. Immunoblot detection of SKIP and Ser2-phosphorylated RNAPII in response to increasing levels of flavopiridol.
In contrast, levels of Ser2-phosphorylated RNAPII decline with exposure to much higher concentrations of FP (>100 nM).

SKIP protein = assay: Immunoblot of endogenous SKIP protein in 293 cells exposed to FP; assay type: cell-based; settings: 293 cells exposed for 18 hr
Protocol: as §1

[2] = molecular target: T1, SKIP (Ski-interacting protein), endogenous (human, UniProt Q13573 2-536); assay: GST pull-down from HCT116 nuclear extract, Western blot
T1 construct: Endogenous protein of human HCT116 nuclear extract (pull-downs) or U2OS whole-cell lysate (co-IP); also called SNW1; NCoA62
T1 sequence: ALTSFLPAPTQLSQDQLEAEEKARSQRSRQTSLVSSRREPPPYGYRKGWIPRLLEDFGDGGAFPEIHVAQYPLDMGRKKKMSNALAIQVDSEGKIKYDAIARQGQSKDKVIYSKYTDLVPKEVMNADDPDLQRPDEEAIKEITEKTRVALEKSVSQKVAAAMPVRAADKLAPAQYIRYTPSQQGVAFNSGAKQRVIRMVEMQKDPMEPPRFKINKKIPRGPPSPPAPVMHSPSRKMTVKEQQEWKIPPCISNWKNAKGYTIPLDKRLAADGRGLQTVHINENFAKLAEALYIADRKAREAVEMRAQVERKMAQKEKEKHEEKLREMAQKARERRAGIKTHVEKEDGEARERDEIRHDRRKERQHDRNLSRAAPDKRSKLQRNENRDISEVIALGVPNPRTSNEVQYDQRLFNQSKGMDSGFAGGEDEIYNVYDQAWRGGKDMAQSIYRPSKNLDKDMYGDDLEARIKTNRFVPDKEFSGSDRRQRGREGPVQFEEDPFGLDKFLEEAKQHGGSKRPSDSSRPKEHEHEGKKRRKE
Protocol: SST fusion constructs were expressed in BL21 *Escherichia coli* cells, and crude bacterial lysates were prepared by sonication in GST lysis buffer (25 mM Tris at pH 7.5, 150 mM NaCl, 1 mM EDTA, protease inhibitor). Approximately 10 μg of the appropriate GST fusion proteins was incubated with precleared HCT116 nuclear extract for 2 h at 4° C. The binding reaction was then added with 30 μL of glutathione-Sepharose beads and mixed for another 1 h at 4° C. The beads were washed four times with the above GST lysis buffer, separated on a 10% SDS-PACE, and analyzed by Western blotting.
(§2) Figure 4: FIG. 4. SKIP associates with unspliced p21 mRNA and recruits U2AF65. (A) Immunoblot analysis of the interaction between SKIP, U2AF35, and U2AF65 in GST pull-down experiments from HCT116 cell nuclear extract. (B) Total proteins were extracted from U2OS cells for coimmunoprecipitation. Immunoprecipitates were examined by Western blot using antibodies against SKIP, U2AF35, or U2AF65. (C) ChIP analysis of U2AF65 binding on the p21 and PUMA genes. U2OS cells were transfected with control or SKIP siRNA for 48 h, followed by treatment with vehicle or etoposide (20 μM) for 6 h. Protein extracts were immunoprecipitated with antibodies against U2AF65. ChIP-enriched DNA was quantified by qPCR with the indicated primers in FIG. 2A. […] Immunoprecipitated p21 mRNA was detected using qRT-PCR with the indicated primers.

[3] = molecular target: T1, SKIP (Ski-interacting protein), …; assay: co-immunoprecipitation with SKIP antibody from U2OS whole-cell lysate, Western blot
Protocol: The immune complexes were subjected to SDS-PAGE followed by immunoblotting with the secondary antibody. For RNA-IP experiments, cells were lysed in ice-cold NET-2 buffer (50 mM Tris-HCL at pH 7.4, 300 mM NaCl, 0.5% [vol/vol] Nonidet P-40, 1× complete protease inhibitors [Roche], 100 U/mL RNase OUT [Invitrogen]). The lysate was incubated with the indicated antibodies or control normal rabbit/mouse IgG on a rotator overnight at 4° C., followed by addition of protein A/G agarose (Invitrogen) for 2 h at 4° C. Beads were then washed four times using the NET-2 buffer. Immunoprecipitated RNA was then extracted using Trizol and reverse-transcribed with random hexamers. The resulting cDNA was analyzed with the indicated primer sets (Table 5).
as §2, with “U2OS cells were transfected with control or SKIP siRNA for 48 h, followed by treatment with vehicle or etoposide (20 μM) for 6 h. Protein extracts were immunoprecipitated with antibodies against U2AF65.” left out

TGF-β
time of peak p21 mRNA levels after induction (p21 mRNA): 4 h

CC(C)C[C@@H](C=O)NC(=O)[C@H](CC(C)C)NC(=O)[C@H](CC(C)C)NC(=O)OCc1ccccc1 [MG132] (Cbz-Leu-Leu-Leu-aldehyde)
p21 protein levels (p21): elevated p21 protein levels

CN1CC[C@H](c2c(O)cc(O)c3c(=O)cc(-c4ccccc4Cl)oc23)[C@H](O)C1 [FP, Flavopiridol]
SKIP mRNA levels (SKIP mRNA): unaffected | FP concentration at which levels of Ser2-phosphorylated RNAPII decline [1]: > 100 nM | FP concentration at which SKIP protein levels start to decline (SKIP protein): lO

B1: GST-U2AF35 (other, UniProt Q01081 1-240, looked up)
chain: MAEYLASIFGTEKDKVNCSFYFKIGACRHGDRCSRLHNKPTFSQTIALLNIYRNPQNSSQSADGLRCAVSDVEMQEHYDEFFEEVFTEMEEKYGEVEEMNVCDNLGDHLVGNVYVKFRREEDAEKAVIDLNNRWFNGQPIHAELSPVTDFREACCRQYEMGECTRGGFCNFMHLKPISRELRRELYGRRRKKHRSRSRSRERRSRSRDRGRGGGGGGGGGGGGRERDRRRSRDRERSGRF
notes: not shown: glutathione-S-transferase (GST) fusion tag
binding result [2]: no binding

B2: U2AF35 (other, human, UniProt Q01081 2-240, looked up)
chain: AEYLASIFGTEKDKVNCSFYFKIGACRHGDRCSRLHNKPTFSQTIALLNIYRNPQNSSQSADGLRCAVSDVEMQEHYDEFFEEVFTEMEEKYGEVEEMNVCDNLGDHLVGNVYVKFRREEDAEKAVIDLNNRWFNGQPIHAELSPVTDFREACCRQYEMGECTRGGFCNFMHLKPISRELRRELYGRRRKKHRSRSRSRERRSRSRDRGRGGGGGGGGGGGGRERDRRRSRDRERSGRF
notes: Endogenous protein from human cancer cell lines; also called nuclear U2AF35
binding result [3]: no binding
